Test results: patent US3989835A, “Method of using 6-substituted amino phenyl-2,3,5,6-tetra-hydro[2,1-b]thiazoles for controlling gastrointestinal nematodes” (American Cyanamid Company, priority 1974, dated 1976)
Values joined by “and” are separate entries in the source; they are usually repeats but may differ in a detail not shown here. Equal values may be shown once. Where a name gives a salt, the structure may show the parent alone. Read-outs that look alike come from different tables or passages of the source.

Columns and labels:
Nematospiroides dubius = assay: Anthelmintic efficacy against N. dubius in mice, single oral dose; format: in vivo, Nematospiroides dubius (in albino female mice); details: for inhibition in vivo at 5 mg/kg: single oral dose 5.0 mg./Kg.; for inhibition in vivo at 10 mg/kg: single oral dose 10 mg./Kg.
Trichuris vulpis = assay: Oral or subcutaneous activity vs. mature Trichuris vulpis in dogs (critical test); format: in vivo
Experimental: (§1) Dogs infected with mature adult whipworms Trichuris vulpis were treated with various single or double doses of unsubstituted or substituted tetramisole analogs by the oral or subcutaneous route (Table XI hereinafter). Whipworms passed in the feces were collected for several days, and the whipworms still present determined at necropsy. Percent efficacy was determined in these "critical" tests. […] Trichuris is a type of nematode refactory to treatment with most prior anthelmintics at well tolerated doses. Taxonomically allied nematodes, e.g., Trichinella and Capillaria are also refractory to most anthelmintics.

helminths [1] = assay: Activity against helminths (general statement); details: in vivo
in vivo [2] = details: dog
Experimental: as §1

in vivo [3] = details: for Approx. LD50 /ED50: chemotherapeutic index, mouse oral, N. dubius; for LD50: mouse, in vivo, po; for Dead/Total: mice
Source text: Data on the acute oral toxicity to mice of various single oral doses of the above compounds and several analogs were obtained by conventional procedures, (Table IX hereinafter).

whipworms = details: prior art compounds, especially in dogs; cited from earlier work
helminths [4] = details: prior art compounds; cited from earlier work
[5] = Heligmosomoides polygyrus, po, mouse oral, Table IX, read-out: Approx. ED50 vs. N. dubius
[6] = oral 5 Mg./Kg., based on total worms in all dogs
[7] = Approx. LD50, mouse oral, Table IX
[8] = LD50, mice, adjusted to molar equivalents of tetramisole free base
[9] = single oral dose 10 mg./kg., N. dubius, mice
[10] = Heligmosomoides polygyrus, po, single oral dose 1.25 mg./Kg., molar-adjusted, read-out: Percent Nematospiroides Activity
[11] = Heligmosomoides polygyrus, po, single oral dose 2.0 mg./Kg., molar-adjusted, read-out: Percent Nematospiroides Activity
[12] = Heligmosomoides polygyrus, po, molar-adjusted, read-out: Percent Nematospiroides Activity
[13] = Heligmosomoides polygyrus, po, as Base, single oral dose, mice, > indicates inactive at dose shown, read-out: Approx. ED50
[14] = Heligmosomoides polygyrus, po, single oral dose 4.0 mg./Kg., molar-adjusted, read-out: Percent Nematospiroides Activity

Nc1cccc(C2CN3CCSC3=N2)c1 (stereo not drawn) [m-NH2 l, l-6-(m-Aminophenyl)-2,3,5,6-tetrahydroimidazo[2,1-b]thiazoleDihydrochloride]
ED50 (Nematospiroides dubius; [5]): 0.75 mg/kg | Percent Nematospiroides Activity (Nematospiroides dubius; single oral dose 1.25 mg./Kg., molar-adjusted): 59% | Percent Nematospiroides Activity (Nematospiroides dubius; single oral dose 2.0 mg./Kg., molar-adjusted): 88% | Percent Nematospiroides Activity (Nematospiroides dubius; single oral dose 4.0 mg./Kg., molar-adjusted): 98% | % Efficacy SC (Trichuris vulpis; SC 1.25 Mg./Kg.): 72% | % Efficacy SC (Trichuris vulpis; SC 2.5 Mg./Kg.): 100% | % Efficacy Orally (Trichuris vulpis; oral 1.25 Mg./Kg.): 94% | % Efficacy Orally (Trichuris vulpis; oral 2.5 Mg./Kg.): 100% | % Efficacy Orally (Trichuris vulpis; [6]): 100% | activity relative to the dl compound (helminths [1]): almost twice as active as the dl compound | MTD (in vivo [2]; po): 10 mg/kg | MTD (in vivo [2]; sc): 4 mg/kg | Approx. LD50 /ED50 (in vivo [3]; Table IX): 20 | LD50 (in vivo [3]; [7]): 15 mg/kg | LD50 (in vivo [3]; [8]): ~15 mg/kg | Dead/Total (in vivo [3]; single oral dose 4-5 Mg./Kg.): 0/12 | Dead/Total (in vivo [3]; single oral dose 10 Mg./Kg.): 2/10 | Dead/Total (in vivo [3]; single oral dose 15 Mg./Kg.): 3/9 | Dead/Total (in vivo [3]; single oral dose 20 Mg./Kg.): 4/5

c1ccc(C2CN3CCSC3=N2)cc1 (stereo not drawn) [l H, l-6-phenyl-2,3,5,6,-tetrahydroimidazo[2,1-b]thiazole, reference compound]
% Efficacy SC (Trichuris vulpis; SC 5 Mg./Kg.): 8% | % Efficacy SC (Trichuris vulpis; SC 10 Mg./Kg.): 50% | % Efficacy SC (Trichuris vulpis; SC 15 Mg./Kg.): 43% | % Efficacy SC (Trichuris vulpis; SC 20 Mg./Kg.): 100% | activity against whipworms in words (whipworms): not sufficiently active against whipworms, especially in dogs | activity against helminths in words (helminths [4]): highly effective against most helminths

c1ccc(C2CN3CCSC3=N2)cc1 (racemic) [dl-tetramisole, dl-6-phenyl-2,3,5,6-tetrahydroimidazo[2,1-b]thiazole, reference compound]
ED50 (Nematospiroides dubius; Heligmosomoides polygyrus, read-out: ED50 (approximate dose which removes 50% of the worms), N. dubius in mice, single oral dose): ~9 mg/kg | ED50 (Nematospiroides dubius; Heligmosomoides polygyrus, as Base, single oral dose, mice, > indicates inactive at dose shown, read-out: Approx. ED50): 9 mg/kg | ED50 (Nematospiroides dubius; Heligmosomoides polygyrus, mouse oral, Table IX, read-out: Approx. ED50 vs. N. dubius): 9 mg/kg | Average % Efficacy (Nematospiroides dubius; single oral dose 6 mg./kg.): 7% | % Efficacy per Group (Nematospiroides dubius; single oral dose 8 mg./kg.): 28% and 33% and 39% | Average % Efficacy (Nematospiroides dubius; single oral dose 8 mg./kg.): 33% | Average % Efficacy (Nematospiroides dubius; [9]): 70% | % Efficacy per Group (Nematospiroides dubius; single oral dose 12 mg./kg.): 60% and 62% and 68% and 73% | Average % Efficacy (Nematospiroides dubius; single oral dose 12 mg./kg.): 66% | % Efficacy per Group (Nematospiroides dubius; single oral dose 16 mg./kg.): 74% and 91% and 92% and 94% | Average % Efficacy (Nematospiroides dubius; single oral dose 16 mg./kg.): 88% | % Efficacy per Group (Nematospiroides dubius; single oral dose 20 mg./kg.): 96% and 98% and 99% and 100% | Average % Efficacy (Nematospiroides dubius; single oral dose 20 mg./kg.): 98% | oral dose at which inactive (% Efficacy Orally column) (Trichuris vulpis; > means inactive at dose shown, oral): > 10 mg/kg | % Efficacy SC (Trichuris vulpis; SC 10 Mg./Kg., listed as dl H): 2% | activity against whipworms in words (whipworms): not sufficiently active against whipworms, especially in dogs | activity against helminths in words (helminths [4]): highly effective against most helminths

O=CNc1cccc(C2CN3CCSC3=N2)c1 (stereo not drawn) [HNCHO l-]
inhibition in vivo at 1.25 mg/kg (Nematospiroides dubius; [10]): 61% | inhibition in vivo at 2 mg/kg (Nematospiroides dubius; [11]): 72% | inhibition in vivo at 5 mg/kg (Nematospiroides dubius; [12]): 95% | inhibition in vivo at 10 mg/kg (Nematospiroides dubius; [12]): 100% | % Efficacy Orally (Trichuris vulpis; oral 1.25 Mg./Kg.): 46% | % Efficacy Orally (Trichuris vulpis; oral 2.5 Mg./Kg.): 100% | MTD (in vivo [2]; po): 2.5 mg/kg | LD50 (in vivo [3]; [8]): ~30 mg/kg

CNc1cccc(C2CN3CCSC3=N2)c1.Cl.Cl (stereo not drawn) [m-NH--CH3 dl, 2,3,5,6-Tetrahydro-6-(m-methylaminophenyl)imidazo[2,1-b]thiazole Dihydrochloride]
ED50 (Nematospiroides dubius; [13]): 7 mg/kg | ED50 (Nematospiroides dubius; [5]): 7 mg/kg | inhibition in vivo at 2 mg/kg (Nematospiroides dubius; [11]): 28% | inhibition in vivo at 10 mg/kg (Nematospiroides dubius; [12]): 66% | inhibition in vivo at 20 mg/kg (Nematospiroides dubius; Heligmosomoides polygyrus, po, single oral dose 20 mg./Kg., molar-adjusted, read-out: Percent Nematospiroides Activity): 100% | inhibition in vivo at 30 mg/kg (Nematospiroides dubius; Heligmosomoides polygyrus, po, single oral dose 30 mg./Kg., molar-adjusted, read-out: Percent Nematospiroides Activity): 100% | % Efficacy SC (Trichuris vulpis; SC 2.5 Mg./Kg.): 29% | % Efficacy SC (Trichuris vulpis; SC 5 Mg./Kg.): 94% | % Efficacy Orally (Trichuris vulpis; [6]): 100% | MTD (in vivo [2]; po): > 10 mg/kg | MTD (in vivo [2]; sc): 30 mg/kg | Approx. LD50 /ED50 (in vivo [3]; Table IX): 14 | LD50 (in vivo [3]; [7]): 100 mg/kg | Dead/Total (in vivo [3]; single oral dose 20 Mg./Kg.): 0/4 | Dead/Total (in vivo [3]; single oral dose 50 Mg./Kg.): 0/4 | Dead/Total (in vivo [3]; single oral dose 100 Mg./Kg.): 2/5

O=CNc1cccc(C2CN3CCSC3=N2)c1 (racemic) [m-NH--HCO dl, 3'-(2,3,5,6-Tetrahydroimidazo[2,1-b-]thiazol-6-yl)-formanilide]
ED50 (Nematospiroides dubius; [13]): 3 mg/kg | ED50 (Nematospiroides dubius; [5]): 3 mg/kg | inhibition in vivo at 4 mg/kg (Nematospiroides dubius; [14]): 79% | inhibition in vivo at 10 mg/kg (Nematospiroides dubius; [12]): 97% | % Efficacy Orally (Trichuris vulpis; oral 1.25 Mg./Kg.): 21% | % Efficacy Orally (Trichuris vulpis; oral 2.5 Mg./Kg.): 83% | % Efficacy Orally (Trichuris vulpis; [6]): 100% | MTD (in vivo [2]; po): 7.5 mg/kg | MTD (in vivo [2]; sc): > 5 mg/kg | Approx. LD50 /ED50 (in vivo [3]; Table IX): 10 | LD50 (in vivo [3]; [7]): 30 mg/kg | LD50 (in vivo [3]; [8]): ~30 mg/kg | Dead/Total (in vivo [3]; single oral dose 4-5 Mg./Kg.): 0/8 | Dead/Total (in vivo [3]; single oral dose 10 Mg./Kg.): 0/4 | Dead/Total (in vivo [3]; single oral dose 20 Mg./Kg.): 1/10 | Dead/Total (in vivo [3]; single oral dose 40 Mg./Kg.): 12/13

Cl.Cl.Nc1cccc(C2CN3CCSC3=N2)c1 (racemic) [dl-m-aminotetramisole, 6-(m-Aminophenyl)-2,3,5,6-tetrahydroimidazo[2,1-b]thiazole Dihydrochloride]
ED50 (Nematospiroides dubius; [13]): 1 mg/kg | ED50 (Nematospiroides dubius; [5]): 1 mg/kg | ED50 (Nematospiroides dubius; Heligmosomoides polygyrus, po, read-out: ED50 (approximate dose which removes 50% of the worms), N. dubius in mice, single oral dose): ~1 mg/kg | inhibition in vivo at 1.25 mg/kg (Nematospiroides dubius; [10]): 57% | inhibition in vivo at 2 mg/kg (Nematospiroides dubius; [11]): 92% | inhibition in vivo at 4 mg/kg (Nematospiroides dubius; [14]): 100% | inhibition in vivo at 5 mg/kg (Nematospiroides dubius; [12]): 100% | inhibition in vivo at 10 mg/kg (Nematospiroides dubius; [12]): 100% | superiority over tetramisole at dose required to attain 85 - 88% efficacy (Nematospiroides dubius; N. dubius in mice): approximately eightfold superiority | activity in words (Nematospiroides dubius; N. dubius in mice, oral): unusually high activity | activity relative to tetramisole (Nematospiroides dubius; from ED50s against N. dubius in mice): approximately nine times as active as tetramisole | activity in words (Nematospiroides dubius; single dose oral ED50 against N. dubius in mice): unexpected high activity | Average % Efficacy (Nematospiroides dubius; single oral dose 0.5 mg./kg.): 5% | % Efficacy per Group (Nematospiroides dubius; single oral dose 0.5 mg./kg., Dihydrochloride): 2% and 6% and 8% | Average % Efficacy (Nematospiroides dubius; single oral dose 1.00 mg./kg.): 50% | Average % Efficacy (Nematospiroides dubius; single oral dose 1.25 mg./kg.): 81% | % Efficacy per Group (Nematospiroides dubius; single oral dose 1.25 mg./kg., Dihydrochloride): 80% and 82% | Average % Efficacy (Nematospiroides dubius; single oral dose 2.0 mg./kg.): 85% | % Efficacy per Group (Nematospiroides dubius; single oral dose 2.0 mg./kg., Dihydrochloride): 77% and 78% and 82% and 83% and 88% and 92% and 98% | % Efficacy per Group (Nematospiroides dubius; single oral dose 4 mg./kg.): 100% | Average % Efficacy (Nematospiroides dubius; single oral dose 4 mg./kg.): 100% | % Efficacy per Group (Nematospiroides dubius; single oral dose 5 mg./kg.): 100% | Average % Efficacy (Nematospiroides dubius; single oral dose 5 mg./kg.): 100% | % Efficacy per Group (Nematospiroides dubius; [9]): 100% | Average % Efficacy (Nematospiroides dubius; [9]): 100% | % Efficacy SC (Trichuris vulpis; SC 2.5 Mg./Kg.): 92% | % Efficacy SC (Trichuris vulpis; SC 5 Mg./Kg.): 100% | % Efficacy Orally (Trichuris vulpis; oral 2.5 Mg./Kg.): 99% | % Efficacy Orally (Trichuris vulpis; [6]): 98% | MTD (in vivo [2]; po): 7.5 mg/kg | MTD (in vivo [2]; sc): 5 mg/kg | Approx. LD50 /ED50 (in vivo [3]; Table IX): 15 | LD50 (in vivo [3]; [7]): 15 mg/kg | LD50 (in vivo [3]; [8]): ~20 mg/kg | Dead/Total (in vivo [3]; single oral dose 4-5 Mg./Kg.): 0/8 | Dead/Total (in vivo [3]; single oral dose 10 Mg./Kg.): 2/29 | Dead/Total (in vivo [3]; single oral dose 15 Mg./Kg.): 7/14 | Dead/Total (in vivo [3]; single oral dose 20 Mg./Kg.): 10/12 | Dead/Total (in vivo [3]; single oral dose 40 Mg./Kg.): 4/4
